# PMC7738871, “Covalent modification of Keap1 at Cys77 and Cys434 by pubescenoside a suppresses oxidative stress-induced NLRP3 inflammasome activation in myocardial ischemia-reperfusion injury” (Theranostics, 2021)
# How the values were obtained:
# NLRP3 inflammasome = experiment: OGD/R-induced NLRP3 inflammasome activation in H9c2; format: cell-based, rat; settings: H9c2, OGD 6 h, reperfusion 18 h, dose-dependent
# Description: (§1) For OGD/R treatment, H9c2 cells were washed twice with phosphate buffered saline (PBS). The medium was changed to glucose and serum free DMEM, and H9c2 cells were incubated in an incubator with 95% N2 and 5% CO2 at 37 °C. After 6 h, the medium was replaced with DMEM containing 10% FBS and 1% PS. Then H9c2 cells were returned to a normal incubator with 5% CO2 balanced with air at 37 °C for the indicated time.
# Total protein was isolated from H9c2 cells, primary mouse cardiomyocytes, RAW264.7 cells and heart tissue using 1X RIPA buffer containing phosphatase and proteinase inhibitors at 4 °C. After measurement of the concentration, the cell lysates were separated by sodium dodecyl sulphate polyacrylamide gel electrophoresis (SDS-PAGE) and transferred to polyvinylidene fluoride (PVDF) membranes. […] After the membranes was washed by TBST buffer for three times, they were incubated with horseradish peroxidase (HRP)-conjugated secondary mouse or rabbit antibodies (1:3,000 dilution) at room temperature (RT) for 1.5 h and then detected by SuperEnhanced chemiluminescence (ECL) reaction reagents (GBCBIO Technologies Inc., Guangzhou, Guangdong, China). […] After letting the membranes stand for 1-2 min, the bands of the respective proteins were detected with the exposure time of 10 ~60 s.
# Keap1 C77S/C434S = target: T1, Keap1 C77S/C434S (Homo sapiens, UniProt Q14145, C434S/C77S); experiment: ITC titration of PBA with Keap1-C77S/C434S; format: binding
# T1 construct: His (N); made in house; host or cells: E. coli BL21 (DE3)
# T1 sequence (Q14145 whole entry C77S/C434S): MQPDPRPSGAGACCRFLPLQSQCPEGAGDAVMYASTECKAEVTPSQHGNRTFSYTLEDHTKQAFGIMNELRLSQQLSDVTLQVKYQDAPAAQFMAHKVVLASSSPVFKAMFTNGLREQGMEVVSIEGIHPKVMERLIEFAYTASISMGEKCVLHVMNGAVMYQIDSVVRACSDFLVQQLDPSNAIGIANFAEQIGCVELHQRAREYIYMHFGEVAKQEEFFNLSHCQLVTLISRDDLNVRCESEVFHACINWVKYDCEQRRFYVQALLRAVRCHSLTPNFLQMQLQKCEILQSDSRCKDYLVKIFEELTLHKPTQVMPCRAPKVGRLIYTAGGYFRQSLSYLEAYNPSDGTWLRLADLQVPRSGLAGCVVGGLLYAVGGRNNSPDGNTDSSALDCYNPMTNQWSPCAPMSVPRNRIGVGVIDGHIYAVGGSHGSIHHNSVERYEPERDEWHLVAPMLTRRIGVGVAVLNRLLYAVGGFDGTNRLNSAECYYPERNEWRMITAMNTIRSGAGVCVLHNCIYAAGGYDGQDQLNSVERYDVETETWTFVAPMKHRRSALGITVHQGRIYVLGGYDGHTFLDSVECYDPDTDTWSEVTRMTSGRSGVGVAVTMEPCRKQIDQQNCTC
# Description: The Keap1 was amplified by PCR using a human cDNA library, and was subcloned into the vector pET28-TEV, which contained one tobacco etch virus (TEV) protease cleavage site at the upstream multiple cloning site. The protein was expressed in E. coli BL21 (DE3) cells and incubated at 37 °C until the OD600 value reached 0.6, using 0.2 mM isopropyl β-D-1-thiogalactopyranoside (IPTG) overnight induction at 18 °C. The cells were isolated by centrifugation, resuspended in ice-cold lysis buffer and lysed by cryogenic overpressure cell breaker at 1,200 psi. The lysates were centrifuged for 60 min at 14,000 rpm to obtain the supernatant. Gravity flow purification of Keap1 protein was obtained at room temperature using 1 mL of Ni-NTA and eluted in buffer containing 250 mM imidazole, followed by 1 mL of HiTrap QHP for the second step purification. The final protein was purified and validated by Superdex 200 10/300GL resin.
# The mutant plasmid DNA was obtained by PCR. The PCR products were cleaved by DpnI restriction enzymes. The restriction endonuclease-cleaved mixture was subsequently transformed into E. coli DH5α. Colonies were evaluated by colony PCR and sequenced. The mutant plasmid was transformed into E. coli BL21 (DE3) after successful sequencing. The steps for expression and purification of all recombinants were described above.
# Isothermal calorimetry (ITC) titration experiments were performed at 25 °C. WT Keap1, Keap1 mutants and PBA were dissolved in binding buffer (40 mM Tris-HCl pH 8.0, 250 mM NaCl). In a typical experiment, 60 μL of PBA (1 mM) was injected 19 times at 2-min intervals from a stirring syringe into the sample cell containing 300 μL of WT protein or mutants (30 μM). The first injection was 0.4 μL of PBA, and the subsequent 18 injections were 2 μL each time. The site-binding models were determined by using MicroCal Origin software.
# [1] = tested on: primary mouse cardiomyocytes transfected with C77S and C434S-Keap1; experiment: OGD/R viability in Keap1-mutant-transfected primary cardiomyocytes; format: cell-based; settings: Cys77S and Cys434S-Keap1 mutant vectors, MTT
# Description: Figure 6 PBA suppresses Keap1-mediated ubiquitination of Nrf2 by disrupting the interaction between Cul3 and Keap1. (A and B) PBA suppressed Nrf2 ubiquitination in a Keap1-Cys77 and C434-dependent manner. First, 293T cells were transfected with WT-Keap1 or C77S and C434S-Keap1, Myc-Nrf2, and Ub plasmids for 24 h and treated with 30 μM PBA. The cell lysates were immunoprecipitated using anti-Myc beads, and the ubiquitination level was evaluated using the anti-Ub antibody. (C and D) PBA induced the dissociation of the Nrf2-Keap1 complex. Then, 293T cells were cotransfected with WT-Keap1 and Flag-Nrf2 plasmids for 24 h and treated with 30 μM PBA for 12 h. The cell lysates were immunoprecipitated with the anti-Flag antibody, and the level of Nrf2 was assessed using the anti-Nrf2 antibody. (E and F) PBA disrupted the interaction between Cul3 and Keap1. […] The cell lysates were immunoprecipitated with the anti-Flag antibody, and the level of Cul3 was measured using the anti-Cul3 antibody. #p < 0.05, ##p < 0.01, ###p < 0.001, the control vs DMSO; *p < 0.05,**p < 0.01, ***p < 0.001, PBA or tBHQ vs DMSO. […] Cell viability was measured by MTT assays. #p < 0.05, ###p < 0.001, the control vs OGD/R; **p < 0.01, ***p < 0.001, OGD/R+PBA vs OGD/R.
# Cell viability was determined by MTT assays. […] And the solution was measured at the absorbance of 490 nm by a spectrophotometer (Thermo Fisher Scientific, MA, USA). […]
# OGD/R-induced H9c2 cells = experiment: OGD/R-induced injury, MTT viability, H9c2; format: cell-based, rat; settings: H9c2, 10 and 30 μM, OGD 6 h, reperfusion 18 h
# Description: as §1
# Cell viability was determined by MTT assays. PBA was prepared to a stock solution dissolved in dimethyl sulfoxide (DMSO). RAW264.7, H9c2 cells, primary mouse cardiomyocytes were treated with different doses of PBA, and DMSO only as control for 48 h for the toxicity. In addition, H9c2 cells or primary mouse cardiomyocytes were treated with the indicated doses of PBA, diazoxide as positive control, DMSO only as control, then cultured with or without OGD/R treatment. At the end of the experiments, MTT was added into each well at the concentration of 0.5 mg/ml, and incubated at 37 °C for 4 h. After removal of the supernatant, 150 μL of DMSO was added to solubilize the formazan products. And the solution was measured at the absorbance of 490 nm by a spectrophotometer (Thermo Fisher Scientific, MA, USA). The results of the MTT assay in all groups were normalized to the control group with DMSO only treatment.
# [2] = ITC, 25 ℃, Keap1 C77S/C434S double mutant
smiles,measurement,setting,value
"C=C(COC(=O)C=Cc1ccc(O)c(O)c1)C(O)COC1OC(CO)C(O)C(O)C1O (centres unmarked) [PBA, pubescenoside A]","OGD/R-induced inflammasome activation (NLRP3, cleaved-caspase1, mature IL-1β)",NLRP3 inflammasome,substantially inhibited
same,Kd,Keap1 C77S/C434S; [2],38.6 µM
same,T△S,Keap1 C77S/C434S; [2],1.11 ± 0.00 kcal/mol
same,△G,Keap1 C77S/C434S; [2],-6.03 ± 0.00 kcal/mol
same,△H,Keap1 C77S/C434S; [2],-4.92 ± 0.637 kcal/mol
same,Kd weaker than that of the WT,Keap1 C77S/C434S; double mutant Cys77S/Cys434S vs WT Keap1,~ 15 fold
same,protective effect against OGD/R injury with mutant Keap1,[1],blocked the protective effect
same,"protection against OGD/R induced injury (cell viability, MTT)",OGD/R-induced H9c2 cells,protected
